Source: publication PMC9387934, “Randomized single oral dose phase 1 study of safety, tolerability, and pharmacokinetics of Iminosugar UV-4 Hydrochloride (UV-4B) in healthy subjects” (PLoS Neglected Tropical Diseases, 2022)
Structures can show the parent of a compound that is named as a salt. Where two headings read alike, the source gives them in different places.

Assays:
[1] = Prediction of human clearance and exposure by scaling of IV PK data from mouse, rat and dog against body weight
Protocol: Pharmacokinetic parameters seen in the Phase 1a study were compared to exposure and clearance data collected in animal studies to determine if consistent parameters are observed across species (detailed ADME and PK assessment in non-human species will be described in a manuscript in preparation). Nonclinical PK and excretion studies of UV-4 as the hydrochloride salt and UV-4 free base were conducted using the oral and IV routes of administration as single doses in mice, rats, ferrets, and dogs. […] Absorption was rapid following oral administration in each nonclinical species, in alignment with the median Tmax of 0.5 to 1 hour across all dose groups in the Phase 1a study.

[2] = system: CYP3A4/5; set-up: method as in Investigator’s Brochure (IB); settings: ref Investigator’s Brochure (IB), cited from earlier work
[3] = human, mouse, rat, and dog liver microsomes and hepatocytes; ref Investigator’s Brochure (IB); cited from earlier work
[4] = system: all ten CYPs; set-up: method as in Investigator’s Brochure (IB); settings: all ten CYPs at the tested conditions; ref Investigator’s Brochure (IB); cited from earlier work
[5] = set-up: method as in Investigator’s Brochure (IB); settings: in vivo; ref Investigator’s Brochure (IB); cited from earlier work
[6] = Seven-day repeat dose non-GLP study in rats (UV4-COV-0045); type: in vivo, rat; settings: for a 60 kg human
Protocol: The seven-day repeat dose study in rats was conducted at 10 mg/kg/dose TID (30 mg/kg/day), 25 mg/kg/dose TID (75 mg/kg/day), and 60 mg/kg/dose TID (180 mg/kg/day).
At 10 mg/kg/dose, mild to moderate clinical hematology and clinical chemistry changes and histopathological changes in the gastrointestinal tract (GI) similar to dogs and mice were observed; therefore this dose exceeded the no observed effect level (NOEL). At […]
60 mg/kg/dose there were similar findings to mice and dogs but a unique finding of possible […]
skin, paws and/or feet. These findings appeared within 120 minutes of treatment with the first or second daily dose 60 mg/kg/dose (TID) on Day 1 or Day 2. This response was transient and self-limiting, and was not observed after Day 2 in either the single or repeated doses. […]
The inverted AST/ALT ratio […]
and lymphocyte depletion were reversible. Thymus weight decrease in females was reversible but thymus weight decreases in males were not. However, because the apparent […]
microscopic thymus findings, thymus weight differences at the recovery necropsy were considered not toxicologically important. In mice at 25 mg/kg/dose (75 mg/kg/day) there were decreased thymus weights (males), follicular epithelium vacuolation in the thyroid, and lymphoid depletion of the thymus (males). […]
Daily exposure [calculated as 3 x AUC(0-8)] is estimated at 32,820 ng•h/mL. […]

[7] = system: DENV-2 S221; settings: ref Investigator’s Brochure (IB), cited from earlier work
[8] = cited from earlier work
[9] = system: DENV; settings: cited from earlier work
[10] = dog; cited from earlier work
[11] = oral, first dose 1 hour before infection, TID for 7 days
[12] = 20 mg/kg TID, started 1 hour before infection, ref UV4-LIA-0004
[13] = 20 mg/kg TID, started 24 hours after infection, ref UV4-LIA-0003b
[14] = 20 mg/kg TID, started 24 hours after infection, ref UV4-LIA-0004
[15] = 20 mg/kg TID, started 48 hours after infection, ref UV4-LIA-0003b
[16] = 20 mg/kg TID, started 48 hours after infection, ref UV4-LIA-0004

In the case of COCCCCCCCCCN1C[C@H](O)[C@@H](O)[C@H](O)[C@H]1CO [UV-4, N-(9’-methoxynonyl)-1-deoxynojirimycin], the clearance ([1]; human, simple scaling of systemic clearance against body weight, IV PK data of mouse, rat and dog, read-out: Human systemic clearance, estimated (converted)) is given as 560 mL/min, the “Total exposure (AUC(0-inf)), predicted” value ([1]; starting dose of 3 mg, from scaled clearance) is given as 89 ng·h/mL and the “Direct inhibition of CYP3A4/5” value ([2]; midazolam 1’-hydroxylase) is given as “No clinically relevant direct inhibition”. The “Direct inhibition of CYP3A4/5” value ([2]; testosterone 6β-hydroxylase) was “weak direct inhibition”, the “Estimated IC50” value ([2]; testosterone 6β-hydroxylase) was greater than 191 µg/mL and the IC50 ([2]; testosterone 6β-hydroxylase, read-out: Estimated IC50) was greater than 600 µM. For the same compound, the Metabolic stability [3] was “metabolically stable” and the “Potential for metabolism-dependent inhibition” value [4] was “no significant potential”.

For COCCCCCCCCCN1C[C@H](O)[C@@H](O)[C@H](O)[C@H]1CO [UV-4B, N-(9’-methoxynonyl)-1-deoxynojirimycin hydrochloride], the “Mouse bone marrow micronucleus” value [5] is given as “not found to be mutagenic or clastogenic”, the “HED of 60 mg/kg/dose in rats” value [6] is given as 580 mg and the 50% effective dose [7, 11] is given as 5 mg/kg TID. The “Minimal effective dose (90% survival rate)” value [7, 11] was 10 mg/kg TID, the 50% effective dose ([7]; step-wise minimal effective dose and therapeutic window studies, start 24 or 48 hours after infection) was 20 mg/kg TID and the “No clinically relevant effects” value ([8]; dog CV single dose, 10 mg/kg) was “−”. For the same compound, the Cardiovascular assessment ([8]; dogs, 10 mg/kg, ref Investigator’s Brochure (IB)) was “no clinically relevant effects”, the “Cardiovascular assessment, only change outside the normal range” value ([8]; dogs, 50 or 200 mg/kg, ref Investigator’s Brochure (IB)) was “decreased arterial pulse pressure” and the Survival rate ([9]; 2.5 mg/kg TID, ref UV4-LIA-0002) was 40%. For the same compound, the Survival rate ([9]; 5 mg/kg TID, ref UV4-LIA-0002) was 50%, the “Mean time to death (MTTD)” value ([9]; 20 mg/kg TID, started 1 hour before infection, all surviving at end of study, ref UV4-LIA-0003b) was “more than 11 days” and the Survival rate ([9]; 20 mg/kg TID, started 1 hour before infection, ref UV4-LIA-0003b) was 100%. The “Mean time to death (MTTD)” value [9, 12] was 9.1 days, the “Survival rate at 11 days post-infection” value [9, 12] was 30% and the “Mean time to death (MTTD)” value [9, 13] was 7 days. The Survival rate [9, 13] was 80%, the “Mean time to death (MTTD)” value [9, 14] was 10.5 days and the “Survival rate at 11 days post-infection” value [9, 14] was 60%. The “Mean time to death (MTTD)” value [9, 15] was 9.3 days, the Survival rate [9, 15] was 70% and the “Mean time to death (MTTD)” value [9, 16] was 6 days. The “Survival rate at 11 days post-infection” value [9, 16] was 40%, the “Minimal effective dose (survival of 90% to 100%)” value ([9]; doses 2.5 to 40 mg/kg TID, first dose 1 hour prior to infection, ref UV4-LIA-0002) was 10 mg/kg TID and the “Dose with decreased PLTs” value [10] was 2 mg/kg/dose, TID. For the same compound, the “Dose with decreased arterial pulse pressure” value [10] was greater than 50 mg/kg, the “Dose with decreased reticulocytes” value [10] was 10 mg/kg/dose, TID and the “Dose with decreased systolic pressure” value [10] was greater than 50 mg/kg. For the same compound, the “Dose with decreased thymus weight” value [10] was ≥ 2 mg/kg/dose, TID, the “Dose with increased ALT” value [10] was ≥ 2 mg/kg/dose, TID and the “Dose with increased AST” value [10] was ≥ 2 mg/kg/dose, TID. The “Dose with increased aPTT” value [10] was ≥ 10 mg/kg/dose, TID, the “Dose with increased diastolic pressure” value [10] was greater than 50 mg/kg and the “Dose with inverted AST/ALT ratio” value [10] was 10 mg/kg/dose, TID. For the same compound, the “Dose with lymphocyte depletion in thymus, spleen, lymph nodes, and GALT” value [10] was ≥ 2 mg/kg/dose, TID, the “Dose with nonformed feces” value [10] was ≥ 10 mg/kg/dose, TID and the “Dose with salivation and vomitus” value [10] was 60 mg/kg/dose, TID. The “Neurologic Effects” value [10] was “none observed”.
